{
  "source": "patent US20250163052A1",
  "about": "“cGAS INHIBITORS AND USES THEREOF” (Cornell University, priority 2022, published 2025)",
  "key": {"m-cGAS": {"target": "m-cGAS (Mus musculus, UniProt Q8C6L5)", "sequence (Q8C6L5 whole entry)": "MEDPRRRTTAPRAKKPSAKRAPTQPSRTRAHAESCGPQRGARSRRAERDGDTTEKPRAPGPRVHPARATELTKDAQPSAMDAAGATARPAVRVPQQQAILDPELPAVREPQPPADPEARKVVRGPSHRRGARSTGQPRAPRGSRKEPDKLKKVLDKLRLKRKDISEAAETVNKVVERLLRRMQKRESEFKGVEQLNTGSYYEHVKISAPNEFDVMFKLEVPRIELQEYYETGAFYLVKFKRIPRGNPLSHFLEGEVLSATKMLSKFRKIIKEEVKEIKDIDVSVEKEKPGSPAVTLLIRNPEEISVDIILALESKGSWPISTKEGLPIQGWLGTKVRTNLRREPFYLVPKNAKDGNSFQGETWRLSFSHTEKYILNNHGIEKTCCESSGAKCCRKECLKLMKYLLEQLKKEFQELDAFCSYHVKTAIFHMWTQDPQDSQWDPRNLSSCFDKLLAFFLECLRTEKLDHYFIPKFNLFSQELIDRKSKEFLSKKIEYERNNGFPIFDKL", "assay": "Cell-free mouse cGAS enzyme inhibition assay (ATP depletion, Kinase-Glo Max)", "format": "biochemical", "conditions": "mouse cGAS"}, "h-cGAS": {"target": "h-cGAS (Homo sapiens, UniProt Q8N884)", "sequence (Q8N884 whole entry)": "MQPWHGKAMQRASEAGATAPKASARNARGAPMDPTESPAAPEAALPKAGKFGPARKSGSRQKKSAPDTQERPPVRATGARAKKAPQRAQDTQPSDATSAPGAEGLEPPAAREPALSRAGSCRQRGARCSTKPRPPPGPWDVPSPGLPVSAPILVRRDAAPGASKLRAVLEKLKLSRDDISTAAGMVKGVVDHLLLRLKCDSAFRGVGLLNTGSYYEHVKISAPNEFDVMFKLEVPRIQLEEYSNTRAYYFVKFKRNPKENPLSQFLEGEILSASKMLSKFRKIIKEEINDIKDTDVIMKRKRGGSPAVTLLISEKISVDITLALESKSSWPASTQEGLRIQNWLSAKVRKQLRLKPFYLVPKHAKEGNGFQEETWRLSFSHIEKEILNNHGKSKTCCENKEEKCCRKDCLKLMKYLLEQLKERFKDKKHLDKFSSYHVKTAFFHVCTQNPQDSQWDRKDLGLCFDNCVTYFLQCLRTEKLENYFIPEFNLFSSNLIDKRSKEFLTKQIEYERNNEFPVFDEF", "assay": "Cell-free human cGAS enzyme inhibition assay (ATP depletion, Kinase-Glo Max)", "format": "biochemical", "conditions": "human cGAS"}, "MEF2C target genes": {"system": "MEF2C target genes", "assay": "Single-nuclei RNA-seq of excitatory and inhibitory neurons, overlap with MEF2C target genes", "format": "in vivo, mouse", "conditions": "P301S mice, 150 mg/kg diet for three months; snRNA-seq", "method": "Hippocampi isolation from frozen mouse hippocampi was adapted from a previous study with modifications (Grubman et al., 2019; Habib et al., 2017). All procedures were done on ice or at 4° C. In brief, post-mortem brain tissue was placed in 1500 μl of Sigma nuclei PURE lysis buffer (Sigma, NUC201-1KT) and homogenized with a Dounce tissue grinder (Sigma, D8938-1SET) with 20 strokes with pestle A and 15 strokes with pestle B. The homogenized tissue was filtered through a 35-μm cell strainer, then centrifuged at 600 g for 5 min at 4° C. and washed three times with 1 ml of PBS containing 1% BSA, 20 mM DTT and 0.2 U μl^−1 recombinant RNase inhibitor. […] The FACS-sorted suspension of DAPI-stained nuclei were counted and diluted to a concentration of 1000 nuclei per microliter in PBS containing 0.04% BSA. […]\nGene counts were obtained by aligning reads to the mm10 genome with Cell Ranger software (v.3.1.0) (10× Genomics). To account for unspliced nuclear transcripts, reads mapping to pre-mRNA were counted. […] We further removed genes expressed in no more than 2 cells, cells with unique gene counts over 4,000 or less than 200, and cells with high fraction of mitochondrial reads (>5%). […] To identify gene ontology and pathways enriched in the differentially expressed genes (DEGs), DEGS were analysed using (MSigDB) gene annotation database (Liberzon et al., 2011; Subramanian et al., 2005). […]"}},
  "data": [
    {"smiles": "Cn1c2c(c3ccc(Cl)c(F)c31)CN(C(=O)CO)CC2", "note": "[TDI-6570, reference compound]", "values": [
      {"measurement": "IC50", "setting": "m-cGAS", "value": 0.0128, "unit": "µM"},
      {"measurement": "IC50", "setting": "h-cGAS", "value": 0.138, "unit": "µM"},
      {"measurement": "Enrichment of MEF2C target genes in DEGs of excitatory and inhibitory neurons", "setting": "MEF2C target genes", "value": "strong enrichment of MEF2C target genes"}
    ]}
  ]
}
